Where two headings read alike, the source gives them in different places.
Columns and labels:
ENPP-1 ECD [1] = target: T1, ENPP-1 ECD (Homo sapiens (Human), UniProt P22413); assay: Assay 1: inhibition of ENPP1 hydrolysis of 2′,3′-cGAMP (AMP-Glo, […] enzyme)
Experimental: Assay 1: Test compounds were plated in a 3× dilution scheme in a 384 well plate. […] AMP Detection solution (100 μL) was added to each well, the plate centrifuged and incubated for 60 min.

ENPP-1 ECD [2] = target: T1, ENPP-1 ECD; assay: Assay 2: inhibition of ENPP1 hydrolysis of 2′,3′-cGAMP (AMP-Glo, […] enzyme)
Experimental: Assay 2: Compared to the conditions in Assay 1, this assay has a larger dynamic range and ensures the system is under steady-state conditions by reducing the enzyme concentration in the assay.
Test compounds were plated in a 3× dilution scheme in a 384 well plate. […] AMP Detection solution (10 μL) was added to each well, the plate centrifuged and incubated for 60 min.

[3] = Assay 2 (KI), ENPP1 hydrolysis of 2′,3′-cGAMP, AMP-Glo, […] ENPP-1, 24 μM cGAMP
[4] = Assay 2 (KI), inhibition of ENPP1 hydrolysis of 2′,3′-cGAMP, no unit in Table 18 (Table 17 legend for this assay uses nM)
[5] = read-out: Assay 2 (KI), inhibition of ENPP1 hydrolysis of 2′,3′-cGAMP, no unit in Table 18 (Table 17 legend for this assay uses nM)
[6] = read-out: Assay 2 (KI), ENPP1 hydrolysis of 2′,3′-cGAMP, AMP-Glo, […] ENPP-1, 24 μM cGAMP

T1 sequence (P22413 98-925): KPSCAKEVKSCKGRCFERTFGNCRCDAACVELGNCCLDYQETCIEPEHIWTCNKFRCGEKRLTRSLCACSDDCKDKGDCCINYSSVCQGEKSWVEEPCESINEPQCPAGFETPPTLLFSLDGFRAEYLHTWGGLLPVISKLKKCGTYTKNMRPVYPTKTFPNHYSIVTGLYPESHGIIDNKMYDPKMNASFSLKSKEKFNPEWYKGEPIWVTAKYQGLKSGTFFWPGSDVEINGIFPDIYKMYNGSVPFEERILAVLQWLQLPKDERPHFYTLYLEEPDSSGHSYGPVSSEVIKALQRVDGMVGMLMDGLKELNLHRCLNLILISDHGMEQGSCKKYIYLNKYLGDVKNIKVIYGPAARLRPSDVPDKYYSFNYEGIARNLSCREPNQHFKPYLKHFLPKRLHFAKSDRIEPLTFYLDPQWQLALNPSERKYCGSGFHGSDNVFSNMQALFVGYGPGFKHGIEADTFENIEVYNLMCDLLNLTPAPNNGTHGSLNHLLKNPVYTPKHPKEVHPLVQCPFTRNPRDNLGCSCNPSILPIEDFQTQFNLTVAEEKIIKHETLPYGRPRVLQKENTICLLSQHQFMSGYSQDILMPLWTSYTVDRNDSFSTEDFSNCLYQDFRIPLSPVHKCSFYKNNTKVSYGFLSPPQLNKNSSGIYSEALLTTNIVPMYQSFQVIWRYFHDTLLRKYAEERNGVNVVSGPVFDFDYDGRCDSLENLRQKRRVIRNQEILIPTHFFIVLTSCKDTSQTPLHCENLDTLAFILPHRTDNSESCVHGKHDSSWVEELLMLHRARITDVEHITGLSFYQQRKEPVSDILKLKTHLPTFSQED

Compound | Ki (ENPP-1 ECD [2]; [4]) | Ki (ENPP-1 ECD [2]; [5]) | also measured
COc1ccc2c(C(=O)N3CCS(=N)(=O)CC3)ccnc2c1 [Compound 6, 1-imino-4-(7-methoxyquinoline-4-carbonyl)-1λ^6-thiomorpholin-1-one] |  |  | IC50 (ENPP-1 ECD [1]; Assay 1 (IC50), inhibition of ENPP1 hydrolysis of 2′,3′-cGAMP, no unit in Table 18 (Table 17 legend for this assay uses nM)): > 30000 nM; IC50 (ENPP-1 ECD [1]; read-out: Assay 1 (IC50), ENPP1 hydrolysis of 2′,3′-cGAMP, AMP-Glo): > 1000 nM
COc1ccc2c(Oc3ccc(S(C)(=N)=O)cc3)ccnc2n1 (centres unmarked) [Compound 78, imino(4-((7-methoxy-1,8-naphthyridin-4-yl)oxy)phenyl)(methyl)-λ^6-sulfanone] | 150 nM |  | Ki (ENPP-1 ECD [2]; [3]): 3 to 300 nM
COc1cccc2c(N3CCC(CS(C)(=N)=O)CC3)cnnc12 (centres unmarked) [Compound 182, imino({[1-(8-methoxycinnolin-4-yl)piperidin-4-yl]methyl})methyl-λ^6-sulfanone] | 3.1 nM |  | 
COc1cccc2c(N3CC=C(CS(C)(=N)=O)CC3)ncnc12 (centres unmarked) [Compound 246, imino({[1-(8-methoxyquinazolin-4-yl)-1,2,3,6-tetrahydropyridin-4-yl]methyl})methyl-λ^6-sulfanone] | 19 nM |  | 
COc1cc2ncnc(-c3ccc4c(c3)CN([S@@](C)(=N)=O)CC4)c2cc1OC [Compound 37a] |  | 21 nM | Ki (ENPP-1 ECD [2]; [6]): 3 to 300 nM
COc1cccc2c(N3CCC(O)(CS(C)(=N)=O)C4(CC4)C3)ncnc12 (centres unmarked) [Compound 194, {[8-hydroxy-5-(8-methoxyquinazolin-4-yl)-5-azaspiro[2.5]octan-8-yl]methyl}(imino)methyl-λ^6-sulfanone] | 40 nM |  | 
COc1cc2ncnc(OCC3CCS(=N)(=O)CC3)c2cc1OC (centres unmarked) [Compound 171, 4-{[(6,7-dimethoxyquinazolin-4-yl)oxy]methyl}-1-imino-1λ^6-thian-1-one] | 49 nM |  | 
COc1cc2ncnc(N3CCC(CN[S@](C)(=N)=O)CC3)c2cc1OC [Compound 94b] |  | 9 nM | Ki (ENPP-1 ECD [2]; [6]): 3 to 300 nM
COc1ccc2c(-n3cc(CCS(C)(=N)=O)cn3)ccnc2c1 (centres unmarked) [Compound 234, imino({2-[1-(7-methoxyquinolin-4-yl)-1H-pyrazol-4-yl]ethyl})methyl-λ^6-sulfanone] | > 500 nM |  | 
COc1cc2nccc(NCc3cccc(S(C)(=N)=O)c3)c2cc1F (centres unmarked) [Compound 192, (3-{[(6-fluoro-7-methoxyquinolin-4-yl)amino]methyl}phenyl)(imino)methyl-λ^6-sulfanone] |  | 0.58 nM | 
COc1cccc2c(N3CCC(CS(C)(=N)=O)CC3)c(F)cnc12 (centres unmarked) [Compound 202, {[1-(3-fluoro-8-methoxyquinolin-4-yl)piperidin-4-yl]methyl}(imino)methyl-λ^6-sulfanone] | 370 nM |  | 
COc1ccc2c(OCC3CCS(=N)(=O)CC3)ccnc2c1 (centres unmarked) [Compound 107, 4-[(1-imino-1-oxido-3,4,5,6-tetrahydro-2H-thiopyran-4-yl)methoxy]-7-methoxy-quinoline] | 80 nM |  | 
COc1cc2ncnc(N3CCC(CCCS(C)(=N)=O)CC3)c2cc1OC (centres unmarked) [Compound 145, {3-[1-(6,7-dimethoxyquinazolin-4-yl)piperidin-4-yl]propyl}(imino)methyl-λ^6-sulfanone] | 8.7 nM |  | Ki (ENPP-1 ECD [2]; [3]): 3 to 300 nM
COc1ccc(F)c2c(N3CCC(CS(C)(=N)=O)CC3)c(C#N)cnc12 (centres unmarked) [Compound 203, 5-fluoro-4-(4-{[imino(methyl)oxo-λ^6-sulfanyl]methyl}piperidin-1-yl)-8-methoxyquinoline-3-carbonitrile] | 1.7 nM |  | 
COc1cc2ncnc(OCC3CCN(S(C)(=N)=O)CC3)c2cc1OC (centres unmarked) [Compound 164, (4-{[(6,7-dimethoxyquinazolin-4-yl)oxy]methyl}piperidin-1-yl)(imino)methyl-λ^6-sulfanone] | 97 nM |  | Ki (ENPP-1 ECD [2]; [3]): 3 to 300 nM
COc1cc2ncnc(N3CCC4(CCN(S(C)(=N)=O)C4)C3)c2cc1OC (centres unmarked) [Compound 216, [7-(6,7-dimethoxyquinazolin-4-yl)-2,7-diazaspiro[4.4]nonan-2-yl](imino)methyl-λ^6-sulfanone] | 5.5 nM |  | 

Compound | Ki (ENPP-1 ECD [2]; [4]) | Ki (ENPP-1 ECD [2]; [5]) | also measured
COc1ccc2c(-n3cc4c(n3)CCN(S(C)(=N)=O)C4)ccnc2c1 (centres unmarked) [Compound 233, imino[2-(7-methoxyquinolin-4-yl)-2H,4H,5H,6H,7H-pyrazolo[4,3-c]pyridin-5-yl]methyl-λ^6-sulfanone] | > 500 nM |  | 
COc1cc2ncnc(N3CCC(CS(C)(=N)=O)CC3)c2cc1OC (centres unmarked) [Compound 147, {[1-(6,7-dimethoxyquinazolin-4-yl)piperidin-4-yl]methyl}(imino)methyl-λ^6-sulfanone] | 9.9 nM |  | Ki (ENPP-1 ECD [2]; [3]): 3 to 300 nM
COc1cc2ncnc(N3CCC4(CC3)CCN(S(C)(=N)=O)CC4)c2cc1OC (centres unmarked) [Compound 209, [9-(6,7-dimethoxyquinazolin-4-yl)-3,9-diazaspiro[5.5]undecan-3-yl](imino)methyl-λ^6-sulfanone] | 17 nM |  | 
COc1cc2ncnc(N3CC4(CCN(S(C)(=N)=O)CC4)C3)c2cc1OC (centres unmarked) [Compound 206, [2-(6,7-dimethoxyquinazolin-4-yl)-2,7-diazaspiro[3.5]nonan-7-yl](imino)methyl-λ^6-sulfanone] | 17 nM |  | 
COc1cc2nccc(-c3cccc(CCS(C)(=N)=O)c3)c2cc1OC (centres unmarked) [Compound 204, {2-[3-(6,7-dimethoxyquinolin-4-yl)phenyl]ethyl}(imino)methyl-λ^6-sulfanone] | 28 nM |  | 
COc1ccc2c(N3CCC4(CC3)CCN(S(C)(=N)=O)C4)ccnc2n1 (centres unmarked) [Compound 158, imino[8-(7-methoxy-1,8-naphthyridin-4-yl)-2,8-diazaspiro[4.5]decan-2-yl]methyl-λ^6-sulfanone] | 0.44 nM |  | Ki (ENPP-1 ECD [2]; [3]): < 3 nM
CCS(=N)(=O)CC1(O)CCN(c2ncnc3c(OC)cccc23)CC1 (centres unmarked) [Compound 195, ethyl({[4-hydroxy-1-(8-methoxyquinazolin-4-yl)piperidin-4-yl]methyl})imino-λ^6-sulfanone] | 0.2 nM |  | 
COc1cc(F)cc2c(N3CCC(CS(C)(=N)=O)CC3)ncnc12 (centres unmarked) [Compound 183, {[1-(6-fluoro-8-methoxyquinazolin-4-yl)piperidin-4-yl]methyl}(imino)methyl-λ^6-sulfanone] | 5.2 nM |  | 
COc1ccc2c(OCc3cncc(S(C)(=N)=O)c3)ccnc2c1 (centres unmarked) [Compound 172, imino(5-{[(7-methoxyquinolin-4-yl)oxy]methyl}pyridin-3-yl)methyl-λ^6-sulfanone] | 11 nM |  | 
COc1ccc2c(-c3ccc4c(c3)CN([S@@](C)(=N)=O)CC4)ccnc2c1 [Compound 52b] |  | 3.5 nM | Ki (ENPP-1 ECD [2]; [6]): 3 to 300 nM
COc1ccc2c(O[C@H]3CC[C@H](S(C)(=N)=O)CC3)ccnc2c1 (some centres unmarked) [Compound 243, imino(methyl)[(1r,4r)-4-[(7-methoxyquinolin-4-yl)oxy]cyclohexyl]-λ^6-sulfanone] | 4.3 nM |  | 
COc1ccc2c(COc3cccc(S(C)(=N)=O)c3)ccnc2c1 (centres unmarked) [Compound 232, imino({3-[(7-methoxyquinolin-4-yl)methoxy]phenyl})methyl-λ^6-sulfanone] | 3.3 nM |  | 
COc1ccc2c(N3CCC(CS(C)(=N)=O)CC3)ccnc2c1 (centres unmarked) [Compound 148, imino({[1-(7-methoxyquinolin-4-yl)piperidin-4-yl]methyl})methyl-λ^6-sulfanone] | 56 nM |  | Ki (ENPP-1 ECD [2]; [3]): 3 to 300 nM
COc1cc2nccc(N3CCC(CNS(C)(=N)=O)CC3)c2cc1Cl (centres unmarked) [Compound 157, N-{[1-(6-chloro-7-methoxyquinolin-4-yl)piperidin-4-yl]methyl}methanesulfonoimidamide] | 2.7 nM |  | Ki (ENPP-1 ECD [2]; [3]): < 3 nM
COc1ccc2c(O[C@H](C)c3cccc(S(C)(=N)=O)c3)ccnc2c1 (stereo partly drawn) [Compound 178, imino({3-[(1R)-1-[(7-methoxyquinolin-4-yl)oxy]ethyl]phenyl})methyl-λ^6-sulfanone] | 2.6 nM |  | 

More lines, main results first:

Ki (ENPP-1 ECD [2]; [4]) | Ki (ENPP-1 ECD [2]; [5]) | Compound | also measured
 | 2.4 nM | COc1cc2ncnc(N3CC4(CC(C[S@@](C)(=N)=O)C4)C3)c2cc1OC [Compound 237a] | 
 | 1.2 nM | COc1cccc2c(N3CCC(O)(C[S@](C)(=N)=O)CC3)c(C#N)cnc12 [Compound 198b] | 
 | 1.7 nM | COc1cc2ncnc(N3CCC4(CC3)CCN([S@@](=N)(=O)C3CC3)C4)c2cc1OC [Compound 160b] | 
 | 2.9 nM | COc1cc2nccc(N3CCC4(CC3)CCN([S@](C)(=N)=O)C4)c2cc1Cl [Compound 156b] | Ki (ENPP-1 ECD [2]; [6]): < 3 nM
 | 0.64 nM | COc1cc2nccc(-c3ccc4c(c3)CN([S@](C)(=N)=O)CC4)c2cc1OC [Compound 161b] | Ki (ENPP-1 ECD [2]; [6]): < 3 nM
 | 1.3 nM | COc1cccc2c(N3CC4(CCN([S@](C)(=N)=O)C4)C3)c(C#N)cnc12 [Compound 222b] | 
 | 54 nM | COc1cccc2c(N3CCC(O)(C[S@@](=N)(=O)C4CC4)CC3)ncnc12 [Compound 193a] | 
 | 11 nM | COc1cc2nccc(OC[C@H]3CCN([S@](C)(=N)=O)C3)c2cc1F [Compound 230a] | 
 | 20 nM | COc1ccc2c(OCc3cc(F)cc([S@@](C)(=N)=O)c3)ccnc2c1 [Compound 177a] | 
 | 7.7 nM | CC[S@](=N)(=O)CC1(O)CCN(c2ncnc3c(OC)cccc23)CC1 [Compound 195b] | 
 | 83 nM | COc1cccc2c(N3CC[C@@H](C[S@@](C)(=N)=O)C3)ncnc12 [Compound 239b] | 
 | 0.5 nM | COc1cc2nncc(N3CCC4(CC3)CCN([S@@](C)(=N)=O)C4)c2cc1OC [Compound 211b] | 
 | 66 nM | COc1cccc2c(N3CCC(C[S@](C)(=N)=O)CC3)ncnc12 [Compound 146b] | 
 | 34 nM | COc1ccc2c(O[C@H](C)c3cccc([S@](C)(=N)=O)c3)ccnc2c1 [Compound 178b] | 
 | 4.1 nM | COc1cc2nccc(OCc3cccc([S@@](C)(=N)=O)c3)c2cc1OC [Compound 175b] | 

From patent publication US11780849B2, “Imino sulfanone inhibitors of ENPP1” (Volastra Therapeutics, Inc., priority 2020, dated 2023)
